From US11839210B1, “Plant growth promoter with strigolactones regulation activities” (King Abdullah University of Science and Technology, priority 2017, dated 2023)

Experiments:
[1] = tested on: SL biosynthesis genes (D27, CCD7, CCD8 and CO); test: qRT-PCR of transcript levels of SL biosynthesis genes (all four together) in rice roots; type: in vivo; conditions: for expression levels of D27, CCD7, CCD8 and CO: −Pi
Procedure: For the analysis of SL transcript levels in the zas mutant, one week-old seedlings were grown hydroponically in half-strength modified Hoagland nutrient solution with K2HPO4·2H2O (+Pi) and without K2HPO4·2H2O (−Pi) for 7 days. Seedlings were further treated with zaxinone for 6 h and tissues were collected.
Total RNA was extracted from the roots and shoots using a Qiagen Plant RNeasy Kit according to the manufacturer's instruction. cDNA was synthesized from 1 μg of total RNA using iScript cDNA Synthesis Kit (BIO-RAD Laboratories, Inc, 2000 Alfred Nobel Drive, Hercules, CA, Cat. No #170-8890) according to instructions in the user manual. For mycorrhizal samples, single-strand cDNA was synthesized from 1 μg of total RNA using Super-Script II (Invitrogen) according to instructions in the user manual. Primers used for real-time quantitative RT-PCR (qRT-PCR) analysis are listed below in Table 3. qRT-PCR was performed using SYBR Green Master Mix (Applied Biosystems; www.lifetechnologies.com) in a StepOnePlus (Life Technologies, Carlsbad, CA, USA). For mycorrhizal samples, qRT-PCR was performed using a Rotor-Gene Q 5plex HRM Platform (Qiagen). The 2-ΔCt method was used to calculate the relative gene expression levels and rice Ubiquitin (OsUBQ or OsRubQ1) gene was used as the internal control to normalize target gene expression.
Two week-old seedlings were grown for another one week in −Pi solution and then transferred to new vials containing fresh −Pi solution with and without the indicated concentrations (2.5 μM, 5 μM, 10 μM and 20 μM) of zaxinone for 6 h and samples were collected. SL biosynthetic genes expression for D27 (FIG. 19A), CCD7 […], CCD8 (FIG. 19C), and CO (Carlactone oxidase-FIG. 19D) in WT and zas mutants. […] The expression levels were detected by quantitative RT-PCR. Ubiquitin was used as a reference gene and the expression levels in the WT-mock were normalized to 1. Bars represent mean±SD (n=3). Different letters above each bar denote significant difference following a One-way ANOVA test (P<0.05).
Transcript levels of SL biosynthesis genes, D27 (FIG. 24C), CCD7/D17 (FIG. 24D), CCD8/D10 (FIG. 24E) and OsCO (Carlactone oxidase—FIG. 24F) in root tissues were collected for SL quantification. The expression levels were detected by qRT-PCR. Ubiquitin was used as a reference gene and the expression levels in the WT-mock were normalized to 1. Two week-old seedlings were grown for another one week in −Pi solution and then transferred to new vials containing fresh −Pi solution with and without 5 μM of zaxinone and GR24 for 6 h and samples were collected. Bars represent mean±SD (n=3). Different letters above each bar denote significant difference following a One-way ANOVA test (P<0.05).

[2] = tested on: wild-type and zas mutant rice seedlings; test: Rescue of zas mutant root phenotype, hydroponically grown rice seedlings; type: in vivo, Oryza sativa Nipponbare; conditions: hydroponic, 2.5 μM zaxinone
Procedure: For rescue of zas mutant phenotype with zaxinone, one week-old seedlings were grown hydroponically in Hoagland nutrient solution containing K2HPO4·2H2O (+Pi) for 3 weeks with 2.5 μM zaxinone treatment or Mock treatment (0.1% acetone). The solution was changed every other day, adding the chemical at each renewal. Plants grown without zaxinone served as the controls and phenotypic data were recorded.
Phenotypic characteristics of hydroponically grown Nipponbare wild-type and zas mutant rice plants were examined to determine the effect of zaxinone treatment on plant growth. Data are means±SD [(FIG. 16A), n=12; (FIG. 16B), n=6; (FIG. 16C), n=4; (FIG. 16D), n=8; Con=Control, Zax=Zaxinone]. Different letters denote significant difference following a One-way ANOVA test (P<0.05).

CC(=O)/C=C/C=C(C)/C=C/C1=C(C)C[C@@H](O)CC1(C)C [zaxinone, 3-OH-β-apo-13-carotenone]
SL transcript levels in roots ([1]; Shiokari wild-type and d3 seedlings, phosphate-starved, 5 μM, 6 h): decreased
transcript levels of D27, CCD7, CCD8 and CO ([1]; WT and zas root tissues, normal phosphorus (+Pi), zaxinone 6 h): nor was there a pronounced effect
expression levels of D27, CCD7, CCD8 and CO ([1]; wild-type roots, 2.5-20 μM zaxinone, 6 h): decreased the expression levels of the wild-type to levels below the WT/Mock control level
transcript levels of D27, CCD7, CCD8 and CO ([1]; zas mutant and wild-type seedlings, phosphate starvation, 5 μM zaxinone): decreased the transcript levels
expression levels of D27, CCD7, CCD8 and CO ([1]; zas mutant roots, increased concentrations (5, 10, 20 μM) vs 2.5 μM, 6 h): Only slight decreases
expression levels of D27, CCD7, CCD8 and CO ([1]; zas mutant roots, lowest level of zaxinone (2.5 μM), 6 h): reduced the expression levels to near the WT/Mock level
relative expression of transcript levels of D27, CCD7, CCD8 and CO ([1]; zaxinone treated zas mutants (zas/Zax), phosphate starvation, 5 μM): at or near levels for the wild-type controls
root growth ([2]; wild type plants): increase in root growth
crown root length ([2]; zas mutant, three weeks, untreated 7-9 cm): 10-11 cm
root biomass ([2]; zas mutant, three weeks, untreated 12-22 mg DW): 28-35 mg DW
crown root number ([2]; zas mutant, three weeks, untreated 20-23): 27-32
